{
  "source": "patent US7671051B2",
  "about": "“Inhibitors of 11-β-hydroxy steroid dehydrogenase type 1” (Biovitrum AB, priority 2001, dated 2010)",
  "origin": "cited, not measured here",
  "test_system": "bone nodule formation",
  "data": [
    {"smiles": "CC1(C)[C@@H](OC(=O)CCC(=O)O)CC[C@]2(C)[C@H]3C(=O)C=C4[C@@H]5C[C@@](C)(C(=O)O)CC[C@]5(C)CC[C@@]4(C)[C@]3(C)CC[C@@H]12", "note": "[carbenoxolone]", "values": [
      {"measurement": "negative effect (of glucocorticoid) on bone nodule formation", "value": "blocked"}
    ]}
  ]
}
